# In US11559537B2, “Combination therapies using caspase-1 dependent anticancer agents and PGE2 antagonists” (Trustees of Tufts College, priority 2017, dated 2023):
# “And” between values parts separate entries of the source, which are not always exact repeats. Equal values may be shown once.
# Key:
# [1] = target: recombinant human PREP (Homo sapiens (Human), UniProt P48147); experiment: In vitro inhibition assay, prolyl oligopeptidase; format: biochemical; conditions: Z-Gly-Pro-AMC substrate
# [2] = target: recombinant human DPPII (Homo sapiens (Human), UniProt Q9UHL4); experiment: In vitro inhibition assay, dipeptidyl peptidase II; format: biochemical; conditions: Lys-Pro-AMC substrate, read-out: DPP2
# [3] = target: recombinant human DPPIV (Homo sapiens (Human), UniProt P27487); experiment: In vitro inhibition assay, dipeptidyl peptidase IV; format: biochemical; conditions: Gly-Pro-AMC substrate, read-out: DPP4
# [4] = system: MB49 murine urothelial carcinoma; experiment: MB49 efficacy studies; format: in vivo, mouse
# [5] = target: recombinant human FAP (Homo sapiens (Human), UniProt Q12884); experiment: In vitro inhibition assay, fibroblast activation protein; format: biochemical; conditions: Z-Gly-Pro-AMC substrate
# [6] = cited from earlier work
# [7] = target: recombinant human DPP8 (Homo sapiens (Human), UniProt Q6V1X1); experiment: In vitro inhibition assay, dipeptidyl peptidase 8; format: biochemical; conditions: recombinant human DPP8, Gly-Pro-AMC substrate
# [8] = target: recombinant human DPP9 (Homo sapiens (Human), UniProt Q86TI2); experiment: In vitro inhibition assay, dipeptidyl peptidase 9; format: biochemical; conditions: recombinant human DPP9, Gly-Pro-AMC substrate
# Sequence of recombinant human DPP9 (Q86TI2 whole entry): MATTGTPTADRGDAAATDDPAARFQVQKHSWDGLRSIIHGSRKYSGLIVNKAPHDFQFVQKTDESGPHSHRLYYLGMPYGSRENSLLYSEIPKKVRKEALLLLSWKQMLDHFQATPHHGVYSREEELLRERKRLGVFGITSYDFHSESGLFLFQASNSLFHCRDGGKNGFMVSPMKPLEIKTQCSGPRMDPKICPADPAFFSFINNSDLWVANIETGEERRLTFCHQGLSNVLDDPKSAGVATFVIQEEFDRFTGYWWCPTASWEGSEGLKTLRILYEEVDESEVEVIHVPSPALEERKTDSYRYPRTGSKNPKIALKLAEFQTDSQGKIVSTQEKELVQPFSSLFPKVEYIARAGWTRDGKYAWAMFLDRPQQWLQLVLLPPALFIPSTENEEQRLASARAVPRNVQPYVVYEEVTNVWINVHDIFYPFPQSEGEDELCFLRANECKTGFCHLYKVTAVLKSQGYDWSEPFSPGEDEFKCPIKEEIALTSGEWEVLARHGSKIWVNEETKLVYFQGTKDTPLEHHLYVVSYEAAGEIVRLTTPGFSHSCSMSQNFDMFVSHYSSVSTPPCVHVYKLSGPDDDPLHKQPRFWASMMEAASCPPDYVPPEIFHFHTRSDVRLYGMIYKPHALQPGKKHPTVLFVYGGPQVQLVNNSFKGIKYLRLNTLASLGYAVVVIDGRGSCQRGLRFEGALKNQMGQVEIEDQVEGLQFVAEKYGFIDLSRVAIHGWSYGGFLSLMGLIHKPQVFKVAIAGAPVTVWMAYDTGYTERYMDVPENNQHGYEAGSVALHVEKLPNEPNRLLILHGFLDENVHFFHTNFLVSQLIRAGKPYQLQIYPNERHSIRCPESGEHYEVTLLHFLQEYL
# Sequence of recombinant human FAP (Q12884 whole entry): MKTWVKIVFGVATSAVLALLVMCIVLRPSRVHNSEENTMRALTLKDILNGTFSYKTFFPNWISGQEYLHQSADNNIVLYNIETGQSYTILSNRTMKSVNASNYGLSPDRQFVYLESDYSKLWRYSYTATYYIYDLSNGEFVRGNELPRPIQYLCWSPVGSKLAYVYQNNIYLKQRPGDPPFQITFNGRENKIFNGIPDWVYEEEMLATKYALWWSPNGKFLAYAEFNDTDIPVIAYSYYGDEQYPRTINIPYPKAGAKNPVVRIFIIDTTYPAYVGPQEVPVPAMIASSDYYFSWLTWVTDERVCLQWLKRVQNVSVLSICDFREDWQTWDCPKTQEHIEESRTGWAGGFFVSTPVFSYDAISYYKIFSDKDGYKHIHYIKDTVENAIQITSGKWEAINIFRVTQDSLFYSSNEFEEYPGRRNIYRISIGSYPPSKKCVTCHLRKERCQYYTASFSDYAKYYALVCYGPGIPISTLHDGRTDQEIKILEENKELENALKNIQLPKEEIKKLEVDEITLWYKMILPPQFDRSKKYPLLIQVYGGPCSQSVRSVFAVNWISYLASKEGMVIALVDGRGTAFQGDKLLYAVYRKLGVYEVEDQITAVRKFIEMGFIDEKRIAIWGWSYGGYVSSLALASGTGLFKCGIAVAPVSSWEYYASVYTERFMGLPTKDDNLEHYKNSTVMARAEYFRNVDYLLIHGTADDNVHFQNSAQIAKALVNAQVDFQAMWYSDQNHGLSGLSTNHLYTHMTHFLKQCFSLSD
# Sequence of recombinant human PREP (P48147 whole entry): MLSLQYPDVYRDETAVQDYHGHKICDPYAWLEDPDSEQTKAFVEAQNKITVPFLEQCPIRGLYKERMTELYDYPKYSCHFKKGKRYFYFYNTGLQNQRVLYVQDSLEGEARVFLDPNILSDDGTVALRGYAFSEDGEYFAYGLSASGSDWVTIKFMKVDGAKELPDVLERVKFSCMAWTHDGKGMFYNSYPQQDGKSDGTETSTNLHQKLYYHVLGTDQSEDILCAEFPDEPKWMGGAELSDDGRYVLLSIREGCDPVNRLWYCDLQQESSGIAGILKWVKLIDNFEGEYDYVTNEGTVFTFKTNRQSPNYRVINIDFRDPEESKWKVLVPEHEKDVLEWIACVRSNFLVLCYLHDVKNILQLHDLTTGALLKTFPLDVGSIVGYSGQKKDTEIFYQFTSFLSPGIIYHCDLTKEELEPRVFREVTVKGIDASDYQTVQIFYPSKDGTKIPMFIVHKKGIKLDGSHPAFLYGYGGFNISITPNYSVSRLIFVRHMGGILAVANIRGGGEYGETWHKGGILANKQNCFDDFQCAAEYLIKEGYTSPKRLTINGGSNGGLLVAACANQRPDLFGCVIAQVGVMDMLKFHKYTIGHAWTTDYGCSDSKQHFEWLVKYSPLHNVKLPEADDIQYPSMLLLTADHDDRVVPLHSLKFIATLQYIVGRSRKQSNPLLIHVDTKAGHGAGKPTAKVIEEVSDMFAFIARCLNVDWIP
# Sequence of recombinant human DPP8 (Q6V1X1 whole entry): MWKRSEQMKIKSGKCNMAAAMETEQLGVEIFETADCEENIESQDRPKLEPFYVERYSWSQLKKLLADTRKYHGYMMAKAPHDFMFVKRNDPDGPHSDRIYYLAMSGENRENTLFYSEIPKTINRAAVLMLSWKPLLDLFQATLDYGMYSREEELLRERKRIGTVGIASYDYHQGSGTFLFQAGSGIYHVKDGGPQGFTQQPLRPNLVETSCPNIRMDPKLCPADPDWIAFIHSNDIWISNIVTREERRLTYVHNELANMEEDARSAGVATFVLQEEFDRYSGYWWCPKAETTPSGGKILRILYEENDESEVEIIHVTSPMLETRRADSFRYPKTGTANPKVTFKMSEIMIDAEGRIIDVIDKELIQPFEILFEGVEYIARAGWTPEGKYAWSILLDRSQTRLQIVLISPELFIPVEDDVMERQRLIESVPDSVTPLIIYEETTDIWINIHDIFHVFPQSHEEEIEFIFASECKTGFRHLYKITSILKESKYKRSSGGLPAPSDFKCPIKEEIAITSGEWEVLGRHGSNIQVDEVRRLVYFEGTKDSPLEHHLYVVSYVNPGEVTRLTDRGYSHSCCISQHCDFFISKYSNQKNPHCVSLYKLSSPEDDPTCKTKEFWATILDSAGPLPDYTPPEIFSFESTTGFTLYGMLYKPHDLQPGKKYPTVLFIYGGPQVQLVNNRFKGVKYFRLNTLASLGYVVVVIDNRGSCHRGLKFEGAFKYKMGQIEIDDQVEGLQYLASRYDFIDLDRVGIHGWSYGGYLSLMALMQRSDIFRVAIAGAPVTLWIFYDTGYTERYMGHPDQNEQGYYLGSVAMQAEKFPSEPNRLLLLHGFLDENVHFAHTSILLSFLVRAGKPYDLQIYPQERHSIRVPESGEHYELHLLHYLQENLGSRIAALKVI
# Sequence of recombinant human DPPIV (P27487 whole entry): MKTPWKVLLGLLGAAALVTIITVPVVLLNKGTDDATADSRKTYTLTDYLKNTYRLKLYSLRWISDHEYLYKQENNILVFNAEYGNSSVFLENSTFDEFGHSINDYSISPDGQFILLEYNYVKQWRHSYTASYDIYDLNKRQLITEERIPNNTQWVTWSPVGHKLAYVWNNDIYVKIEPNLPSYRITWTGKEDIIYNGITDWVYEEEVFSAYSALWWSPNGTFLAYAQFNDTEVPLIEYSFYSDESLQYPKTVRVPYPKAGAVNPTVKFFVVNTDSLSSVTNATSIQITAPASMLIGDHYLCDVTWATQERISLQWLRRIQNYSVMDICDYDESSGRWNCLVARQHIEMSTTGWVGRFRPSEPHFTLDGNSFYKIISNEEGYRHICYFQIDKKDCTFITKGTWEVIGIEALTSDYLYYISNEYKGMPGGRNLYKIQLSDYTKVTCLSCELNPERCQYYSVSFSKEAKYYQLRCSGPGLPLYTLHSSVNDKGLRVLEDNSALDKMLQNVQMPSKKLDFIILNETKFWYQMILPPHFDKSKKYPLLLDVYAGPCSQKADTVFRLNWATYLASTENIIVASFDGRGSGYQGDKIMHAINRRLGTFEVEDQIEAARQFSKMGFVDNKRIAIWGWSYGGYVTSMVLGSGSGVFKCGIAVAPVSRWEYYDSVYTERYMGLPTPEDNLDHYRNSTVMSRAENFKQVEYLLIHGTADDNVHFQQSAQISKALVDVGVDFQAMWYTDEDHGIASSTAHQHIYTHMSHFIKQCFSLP
Structure (SMILES),IC50 [1],IC50 [2],IC50 [3],IC50 [5],further results
CC[C@@H](C)[C@H](N)C(=O)N1Cc2ccccc2[C@H]1B(O)O [1049 C],> 100 µM,0.095 µM,,,
CC(C)[C@@H](C(=O)N1CCC[C@H]1B(O)O)N(C)C [2504 C],,10 µM,,,
N[C@H](C(=O)N1Cc2ccccc2C1)C1CCCCC1 [3360 C],,,1.38 µM,,
CC(C)[C@H](N)C(=O)N1C[C@@H](O)C[C@H]1B(O)O [4312 S],,0.61 µM,0.009 µM,,
Cc1ccc(-c2cc(C(F)(F)F)nn2-c2ccc(S(N)(=O)=O)cc2)cc1 [celecoxib],,,,,"tumor growth rates compared to control (vehicle) ([4]; celecoxib alone, various concentrations, MB49 tumor bearing mice): no observed differences in tumor growth rates compared to control"
C[C@H](N)C(=O)N1CCC[C@H]1B(O)O [compound 1129],,0.0014 µM and 0.001 µM,,,
O=C([C@@H]1CCCN1)N1CCC[C@H]1B(O)O [compound 1181],,0.054 µM,0.0013 µM,,
N[C@@H](Cc1ccccc1)C(=O)N1CCC[C@H]1B(O)O [compound 1336],,,0.002 µM,,
CC(C)C[C@H](N)C(=O)N1CCC[C@H]1B(O)O [compound 1454],,0.001 µM,0.0016 µM,0.15 µM,
NCCCC[C@H](N)C(=O)N1CCC[C@H]1B(O)O [compound 1700],,,0.0013 µM,,
N[C@H](C(=O)N1CCC[C@H]1B(O)O)C1CCCCC1 [compound 1797],,0.0021 µM,0.0012 µM,,
"CC(C)[C@H](N)C(=O)N1CCC[C@H]1B(O)O [compound 2054, Valine-boroProline]",,,,,"tumor regression in combination with celecoxib ([4]; 20 microgram dose of Val-boroPro, individual animal curves): facilitated the achievement of tumor regression; antitumor activity in combination with celecoxib ([4]; MB49 tumor bearing mice, Val-boroPro + celecoxib): increased the antitumor activity of Val-boroPro markedly (statistically significantly) and in a dose-dependent manner; efficacy in phase II trials ([6]; in combination with standard cytotoxic chemotherapy): did not meet the endpoints for efficacy; partial response ([6]; phase I, talabostat and rituximab, rituximab-resistant lymphoma): 3 patients; patients with improvement in grade 3 neutropenia ([6]; phase I, thirteen patients, concomitant immunosuppressive chemotherapy): five"
C[C@H](N)C(=S)N1CCC[C@H]1B(O)O [compound 2243],,,,0.13 µM,
CN(CB(O)O)C(=O)[C@@H](N)CCC(=O)O [compound 2408],,1.7 µM,,11 µM,
CC(C)[C@H](N)C(=O)N1C[C@H](O)C[C@H]1B(O)O [compound 4312],,6.4 µM,0.002 µM,,
CC[C@H](C)[C@H](N)C(=O)N1CCC[C@H]1B(O)O [compound 4316],,0.0078 µM,0.0012 µM,,
CC[C@@H](C)[C@H](N)C(=O)N1CCC[C@H]1B(O)O [compound 4317],,0.012 µM,0.002 µM,,

Structure (SMILES),IC50 [1],IC50 [2],IC50 [3],IC50 [5],further results
"CC[C@@H](C)C(N)C(=O)N1Cc2ccc(F)cc2C1 (some centres unmarked) [compound 5291, reference compound]",> 100 µM,,,> 100 µM,
CC(C)[C@H](N)C(=O)N1CCC[C@H]1C(=O)CO [compound 5298],> 100 µM,4.18 µM,0.0045 µM,> 100 µM,
N[C@H](C(=O)N1Cc2ccc(F)cc2C1)C1CCCCC1 [compound 5311],> 100 µM,63.8 µM,> 100 µM,> 100 µM,IC50 [7]: 81 µM
NC(=O)C[C@H](N)C(=O)N1Cc2ccc(F)cc2C1 [compound 5316],> 100 µM,92.2 µM,> 100 µM,> 100 µM,IC50 [7]: 4.11 µM
CN(C)C(=O)C[C@H](N)C(=O)N1Cc2ccc(F)cc2C1 [compound 5317],> 100 µM,22.1 µM,54.8 µM,> 100 µM,
CC(C)[C@H](N)C(=O)N1Cc2ccc(F)cc2C1 [compound 5321],> 100 µM,44.9 µM,,> 100 µM,
CC(C)(C)[C@H](N)C(=O)N1Cc2ccc(F)cc2C1 [compound 5322],> 100 µM,36.8 µM,,> 100 µM,
O=C([C@@H]1CCCCN1)N1Cc2ccc(F)cc2C1 [compound 5323],> 100 µM,> 100 µM,60.3 µM,> 100 µM,IC50 [8]: 0.305 µM; IC50 [7]: 0.862 µM
NCCCC[C@H](N)C(=O)N1Cc2ccc(F)cc2C1 [compound 5325],> 100 µM,0.842 µM,> 100 µM,> 100 µM,IC50 [7]: 0.123 µM
N[C@H](C(=O)N1Cc2ccc(F)cc2C1)C1CCCC1 [compound 5333],,26.5 µM,,> 100 µM,
CC[C@H](N)C(=O)N1CCC[C@H]1B(O)O [compound 5466],,0.0029 µM,,,
NC1(C(=O)N2Cc3ccc(F)cc3C2)CCNCC1 [compound 5552],,> 100 µM,,41.1 µM,IC50 [8]: > 100 µM; IC50 [7]: > 100 µM
NC1(C(=O)N2Cc3ccccc3C2)CCNCC1 [compound 5553],,0.978 µM,> 100 µM,> 100 µM,IC50 [7]: > 100 µM
NC1(C(=O)N2CCSC2)CCNCC1 [compound 5554],25.1 µM,36.5 µM,> 100 µM,> 100 µM,IC50 [8]: > 100 µM; IC50 [7]: > 100 µM
N[C@@H](CCC(=O)O)C(=O)N1CCC[C@H]1B(O)O [compound 8120],,0.012 µM,0.0011 µM,,
CC(C)(C)[C@H](N)C(=O)N1CCC[C@H]1C#N [compound 9987],> 100 µM,> 100 µM,,,
